Key:
[1] = test system: IN2-2 transcript; experiment: Northern blot of maize anther RNA with IN2-2 probe after CBSU treatment; assay type: in vivo; details: CBSU-treated male-fertile and male-sterile plants, FIG. 2
Method: Wild type maize plants were grown to the meiosis stage of microspore development. Plants were watered with 30 mg 2-CBSU and allowed to develop to the quartet and early vacuolate stage of microspore development. PolyA+ anther RNA was isolated from wild type control and CBSU treated plants and stored. A cDNA library was constructed from mRNAs isolated from CBSU-treated plants, arrayed onto nylon filters and stored. A cDNA subtraction library was generated using the Clontech PCR-Select cDNA Subtraction Kit (#K1804-1) following the manufacturer's instructions to enrich for CBSU-specific transcripts. Using this approach anther PolyA+mRNA from wild-type plants was used to enrich for transcripts found in the anther PolyA+mRNA from CBSU treated plants. […]
(§1) To determine whether the ZmCAS1 cDNA was 1) induced in maize anthers by CBSU-treatment and 2) reduced or absent in tapetum and microspore-ablated maize anthers from CBSU-treated 5126:DAM plants, a 477 bp ZmCAS1c-1 DNA fragment (SEQ ID NO:1), as well as DNA fragments from ZmMS45, Zm5126, ZmActin, and ZmUbiquitin (Cigan et al. 2001. […] MS45 and 5126 transcripts were easily detected in anther RNAs from male-fertile plants but absent in anther RNAs from male-sterile plants (FIG. 2) further supporting the observation that these RNAs are localized to the maize tapetum (Cigan et al. 2001. Sex. Plant Reprod. 14, 135-142).

[2] = test system: 1.7 kb ZmCAS1 promoter; experiment: Western analysis of MS45 protein in ms45/ms45 maize plants transformed with PHP16973; assay type: in vivo; details: PHP16973 plants watered with 30 mg of CBSU, collected 2 days later
[3] = test system: 1.7 kb ZmCAS1 promoter; experiment: X-Gluc GUS staining of maize callus transformed with PHP16975; assay type: cell-based; details: room temperature, 18 hours, FIG. 4A
Source text: Agrobacterium-mediated transformation of immature embryos was used to generate integrated copies of PHP16974 (SEQ ID NO:11; ZmCAS1HindIII Pro:GUS/35SPAT) comprising the 1.0 kb ZmCAS1 promoter (SEQ ID NO:9), PHP16975 (SEQ ID NO:12, ZmCAS1BamPro:GUS/35SPAT) comprising the 1.7 kb ZmCAS1 promoter (SEQ ID NO:10) and PHP16972 (SEQ ID NO:13, ZmCAS1 HindIII Pro:MS45/35SPAT) comprising the 1.0 kb ZmCAS1 promoter or PHP16973 (SEQ ID NO:14, ZmCASIBamPro:MS45/35SPAT:) comprising the 1.7 kb ZmCAS1 promoter.
To determine whether the 1.7 kb or the 1.0 kb ZmCAS1 promoter from maize could direct induced expression of the GUS reporter, three bialophos-resistant callus events were placed onto maintenance media and maintenance media containing increasing amounts of the safener CBSU-2 for at room temperature for 18 hours, removed and stained with X-Gluc to detect GUS activity.

[4] = test system: 1.7 kb ZmCAS1 promoter; experiment: GUS expression in leaf punches of maize plants transformed with PHP16975; assay type: in vivo; details: 2 days after watering with 30 mg of 2-CBSU, 3 PHP16975 plants, FIG. 5
Method: Plants were also regenerated from callus events containing PHP16975 and grown in the greenhouse to approximately the 5 leaf stage. At this stage of development, leaf punches from plants regenerated from the 3 bialophos-resistant events shown in FIG. 5 were collected pre- (C) and post-watering (S) with 30 mg of 2-CBSU to examine GUS expression in leaf in response to application of the safener.

[5] = test system: 1.0 kb ZmCAS1 promoter; experiment: X-Gluc GUS staining of maize callus transformed with PHP16974; assay type: cell-based; details: seven PHP16974 callus events, 100 mg/liter CBSU, room temperature, FIG. 4B
[6] = test system: 1.0 kb ZmCAS1 promoter; experiment: X-Gluc GUS staining of rice callus transformed with PHP16974; assay type: cell-based, Oryza sativa cv.Kitaake; details: PHP16974 callus events, 100 mg/liter CBSU, 24 hours, FIG. 9
Source text: To determine whether the ZmCAS1 promoter could conditionally regulate expression in response to safener treatment or heat treatment in plant species other than maize, Agrobacterium-mediated transformation was used to generate integrated copies of PHP16974 (ZmCAS1HindIII Pro:GUS) comprising the truncated 1.0 kb ZmCAS1 promoter for studies in rice. Scutellum from 10-14 day old germinating seeds (Oryza sativa cv.Kitaake) was used for rice transformation experiment (Toki. 1997, PI Mol. Biol Reporter 15:16-21). Bialophos-resistant callus events containing PHP16974 were selected and screened for their ability to respond to safener application. Four independent bialophos-resistant events were grown on maintenance media or maintenance media containing 100 mg/liter CBSU for 24 hours, removed and stained with X-Gluc. […] PHP16974 bialophos-resistant events were regenerated into plants. Leaf tissue was collected from these plants and used for DNA hybridization analyses to identify single-copy PHP16974 insertions. These plants were allowed to set selfed seed and were used for subsequent studies to monitor GUS expression under the transcriptional control of the ZmCAS1 promoter. Sixteen seed were selected from 2 single-copy PHP16974 events were sterilized, grown on hormone-free media at 28° C. or 37° C. for 48 hours and allowed to germinate. […]

[7] = test system: ZmCAS1 transcript; experiment: Northern blot of maize RNA with ZmCAS1 probe after CBSU treatment; assay type: in vivo; details: for ZmCAS1 hybridization signal in anther mRNA: FIG. 2
Method: Wild type maize plants were grown to the meiosis stage of microspore development. Plants were watered with 30 mg 2-CBSU and allowed to develop to the quartet and early vacuolate stage of microspore development. PolyA+ anther RNA was isolated from wild type control and CBSU treated plants and stored. A cDNA library was constructed from mRNAs isolated from CBSU-treated plants, arrayed onto nylon filters and stored. A cDNA subtraction library was generated using the Clontech PCR-Select cDNA Subtraction Kit (#K1804-1) following the manufacturer's instructions to enrich for CBSU-specific transcripts. Using this approach anther PolyA+mRNA from wild-type plants was used to enrich for transcripts found in the anther PolyA+mRNA from CBSU treated plants. This cDNA subtraction library was subcloned into pSPORT (BRL) vector, colonies plated, picked and sequenced. Among the vector inserts sequenced, two DNA sequences were present at a high proportion, at more than 10% of the inserts sequenced, and referred to as ZmCAS1c-1 (477 bp; SEQ ID NO: 1) and ZmCAS1c-2 (438 bp; SEQ ID NO: 2) (QBSU-Anther-Subtract 1). Both ZmCAS1c-1 and ZmCAS1c-2 had sequence identity to mannitol dehydrogenases from plants. ZmCASlc-1 and ZmCAS1c-2 DNA fragments were used as hybridization probes to screen the filter arrayed cDNA CBSU-anther library described above to isolate full-length cDNA containing hybridizing clones. Both ZmCAS1c-1 and ZmCAS1c-2 identified identical cDNA clones. […]
as §1

[8] = test system: 1.0 kb ZmCAS1 promoter; experiment: Northern analysis of MS45 mRNA in ms45/ms45 maize callus transformed with PHP16972; assay type: cell-based; details: 100 mg/liter CBSU, room temperature, 18 hours, FIG. 6
Source text: T-DNA vectors PHP16972 (SEQ ID NO:13, ZmCAS1HindIII Pro: MS45/35S:PAT) and PHP16973 (SEQ ID NO: 14, ZmCAS1 BamPro:MS45/35S:PAT) were used to transform maize callus which was generated to contain a segregating population of MS45/ms45 heterozygous and ms45/ms45 homozygous mutant plants. In order to detect MS45 RNA or protein expression under the control of the 1.0 or 1.7 kb ZmCAS promoter in maize anthers, plants containing a naturally occurring mutation in the maize MS45 gene which results in loss of MS45 RNA and protein were used for these studies. Pollen from MS45/ms45 plants were used to fertilize male-sterile ms45/ms45 plants for the purpose of generating embryos which would be ms45/ms45 as described in Cigan et al 2001. […] Five random bialophos-resistant callus events containing integrated copies of PHP16972 were placed onto maintenance media (FIG. 5, (−)) and maintenance media containing 100 mg/liter safener CBSU-2 (FIG. 5 (+)) at room temperature for 18 hours, removed and PolyA+RNA prepared and used for RNA analysis as described (Cigan et al. 2001. Sex. Plant Reprod. 14, 135-142) using the ZmMS45 and ZmActin probes for hybridization analysis. […] A very low signal was observed when callus was grown in the absence of CBSU. Actin was used as a control probe to show nearly equivalent RNA levels were present in all samples. […]

NC(=O)NS(=O)(=O)c1ccccc1Cl [CBSU, N-(aminocarbonyl)-2-chlorobenzenesulfonamide]
IN2-2 hybridization signal in anther mRNA [1]: strong hybridization signals
MS45 protein in leaf extracts ([2]; FIG. 7): increased steady-state levels of the MS45 protein
MS45 protein in anther extracts ([2]; FIG. 8): Increased MS45 protein
GUS expression in callus ([3]; 10 mg/l CBSU): low levels of GUS expression
GUS expression in callus ([3]; 100 mg/l CBSU): strong GUS expression
GUS expression in leaf punches [4]: strong GUS expression
GUS expression in callus [5]: inducible GUS expression
GUS expression in rice callus [6]: strong GUS expression
ZmCAS1 hybridization in mRNAs from callus, leaf and anther ([7]; maize callus or leaf treated with CBSU, FIG. 3): strong hybridization
ZmCAS1 hybridization signal in anther mRNA ([7]; male-fertile CBSU-treated plants (+, F)): strong hybridization signals
ZmCAS1 hybridization signal in anther mRNA ([7]; male-sterile 5126:DAM CBSU-treated plants (+, S)): reduced ZmCAS1 signal
MS45 mRNA hybridization signal in callus [8]: strong induction of a hybridization signal
